Entries after “also recorded” stand apart in the source; their conditions may differ.

The test system of experiment [1] is mitochondria isolated from spinal cord injury site. The conditions noted are these: once daily ALC administered acutely after contusion SCI; cited from earlier work.
Another experiment relates to spinal cord injury (SCI). The conditions noted are these: cited from earlier work.
Experiment [2] relates to mitochondria isolated from spinal cord injury site. Kind of experiment: Mitochondrial respiration (OCR) of spinal cord mitochondria after contusion SCI. The class given is in vivo, rats. Conditions: 24 hours after SCI; MitoTxp 100 µg intraspinal within 3 hr; ALC 300 mg/kg i.p. at 3 hours plus booster 6 hours later. The method, then: Bars are Mean ± SD, n=5-6/group. *p<0.05 compared with sham; # p<0.05 versus vehicle.
Briefly, rats were contused at L1/L2 spinal level with 250 kDyn force using Infinite Horizon Impactor; Sham group received only T12 laminectomy. Designated injured rats were injected either intraspinally with healthy mitochondria (100 µg, MitoTxp) isolated from syngeneic rat soleus muscle within 3 hr and/or injected with ALC (300 mg/kg, i.p.) at 3 hours followed by a booster 6 hours later. Then, after 24 hours, mitochondria were isolated from spinal cord injury site and assessed for respiration (OCR).

As for `CC(=O)O[C@H](CC(=O)[O-])C[N+](C)(C)C` [ALC, acetyl-L-carnitine], the mitochondrial respiration entry in experiment [1] is “maintains mitochondrial respiration”. Further, the “long term hind limb locomotor function and tissue sparing” value in the experiment on spinal cord injury (SCI) (continued daily ALC for three weeks after contusion SCI) was “significantly improves long term hind limb locomotor function and tissue sparing”. Besides, the hind limb function entry in the experiment on spinal cord injury (SCI) (injured rats, 3 weeks of daily ALC treatment, vs vehicle) is reported as “able to step consistently with weight support on their hind limbs”. The tissue sparing result with spinal cord injury (SCI) (injured rats, 3 weeks of daily ALC treatment) was “increased gray and white matter tissue sparing”. The “States III & V.1 OCR” value in experiment [2] is recorded as “insignificant trends”.

With N-acetylcysteine amide [NACA], the “long-term functional recovery and tissue sparing” value with spinal cord injury (SCI) (continuous NACA 150 and 300 mg/kg/day up to 7 days post-injury) is “significant tissue sparing and improved recovery of hindlimb function; also recorded: significantly increased long-term functional recovery and tissue sparing”.

Values taken from patent publication US20230118114A1, “BIOERODIBLE LIFE SUPPORT HYDROGELS FOR THE DELIVERY OF VIABLE MITOCHONDRIA” (University of Kentucky Research Foundation, priority 2021, published 2023).
